Test results reported in ChEMBL document CHEMBL4385604, “Identification of Pyrrolo[2,3- d]pyrimidine-Based Derivatives as Potent and Orally Effective Fms-like Tyrosine Receptor Kinase 3 (FLT3) Inhibitors for Treating Acute Myelogenous Leukemia” (J Med Chem, 2019).
Activity calls are given as the source filed them. No cut-off for these calls is given here.

Assays:
[1] = target: T1, Receptor-type tyrosine-protein kinase FLT3 (Homo sapiens, UniProt P36888)
T1 sequence (P36888 whole entry): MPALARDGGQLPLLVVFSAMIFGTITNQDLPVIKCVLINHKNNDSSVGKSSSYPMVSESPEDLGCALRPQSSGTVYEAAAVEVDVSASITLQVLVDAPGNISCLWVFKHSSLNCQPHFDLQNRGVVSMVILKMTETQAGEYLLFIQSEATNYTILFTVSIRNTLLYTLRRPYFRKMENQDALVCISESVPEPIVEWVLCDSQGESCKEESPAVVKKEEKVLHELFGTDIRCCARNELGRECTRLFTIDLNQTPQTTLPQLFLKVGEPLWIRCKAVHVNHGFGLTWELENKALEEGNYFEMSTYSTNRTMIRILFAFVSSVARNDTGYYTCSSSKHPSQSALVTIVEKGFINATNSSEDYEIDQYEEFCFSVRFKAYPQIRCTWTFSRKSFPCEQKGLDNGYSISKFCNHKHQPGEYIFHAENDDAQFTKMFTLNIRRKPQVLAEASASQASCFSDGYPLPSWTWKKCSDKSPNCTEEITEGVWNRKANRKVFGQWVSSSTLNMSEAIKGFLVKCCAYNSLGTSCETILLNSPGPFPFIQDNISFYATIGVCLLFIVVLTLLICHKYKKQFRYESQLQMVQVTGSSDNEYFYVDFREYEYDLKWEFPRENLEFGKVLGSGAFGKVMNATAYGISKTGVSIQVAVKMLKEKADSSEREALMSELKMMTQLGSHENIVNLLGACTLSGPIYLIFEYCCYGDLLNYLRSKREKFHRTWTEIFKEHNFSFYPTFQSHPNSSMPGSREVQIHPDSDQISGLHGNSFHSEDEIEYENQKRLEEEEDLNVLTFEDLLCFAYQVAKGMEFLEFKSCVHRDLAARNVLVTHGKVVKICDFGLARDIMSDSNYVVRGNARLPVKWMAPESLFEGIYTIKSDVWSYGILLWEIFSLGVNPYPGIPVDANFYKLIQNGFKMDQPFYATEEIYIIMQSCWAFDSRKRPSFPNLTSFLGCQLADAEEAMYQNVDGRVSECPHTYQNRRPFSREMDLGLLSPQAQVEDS

[2] = Tmax in Sprague-Dawley rat at 5 mg/kg, po by LC-MS/MS analysis; type: ADME, organism-based; settings: in vivo
[3] = Elimination half-life in Sprague-Dawley rat at 5 mg/kg, po by LC-MS/MS analysis; type: ADME, organism-based; settings: in vivo, read-out: beta t1/2 (converted)
[4] = Plasma clearance in Sprague-Dawley rat at 5 mg/kg, po by LC-MS/MS analysis; type: ADME, organism-based
[5] = Oral bioavailability in Sprague-Dawley rat at 5 mg/kg by LC-MS/MS analysis; type: ADME, organism-based; settings: in vivo
RS4-11 = assay: Antiproliferative activity against human RS4:11 cells harboring wild-type FLT3 measured after 72 hrs by MTT assay; type: functional, cell-based; settings: RS4-11, 72 h
HL-60 = assay: Antiproliferative activity against human HL60 cells harboring wild-type FLT3 measured after 72 hrs by MTT assay; type: functional, cell-based; settings: HL-60, 72 h
MV4-11 [6] = assay: cells; settings: Homo sapiens, MV4-11, 72 h
Description: Antiproliferative activity against human MV4-11 cells harboring FLT3-ITD mutant measured after 72 hrs by MTT assay

MOLM-13 [7] = assay: cells; settings: Homo sapiens, MOLM-13, 72 h
Description: Antiproliferative activity against human MOLM13 cells harboring FLT3-ITD mutant measured after 72 hrs by MTT assay

BaF3 [8] = assay: cells; settings: Mus musculus, BaF3, 72 h
Description: Antiproliferative activity against mouse BAF3 cells harboring FLT3-ITD mutant measured after 72 hrs by MTT assay

BaF3 [9] = assay: cells; settings: Mus musculus, BaF3, 72 h; remark: listed apart in the source
Description: Antiproliferative activity against mouse BAF3 cells harboring FLT3-ITD-F691L mutant measured after 72 hrs by MTT assay

BaF3 [10] = assay: cells; settings: Mus musculus, BaF3, 72 h; remark: listed apart in the source
Description: Antiproliferative activity against mouse BAF3 cells harboring FLT3-ITD-D835V mutant measured after 72 hrs by MTT assay

MV4-11 [11] = assay: Antitumour activity against human MV4-11 cells xenografted in NOD/SCID mouse assessed as tumour growth inhibition; type: functional, cell-based
MOLM-13 [12] = assay: Antitumour activity against human MOLM13 cells xenografted in NOD/SCID mouse assessed as tumour growth inhibition; type: functional, cell-based
MOLM-13 [13] = assay: Potency index, ratio of quizartinib IC50 to test compound IC50 for human MOLM13 cells harboring FLT3-ITD mutant; type: functional

IC50 [1] [nM] | Tmax [2] [min] | half-life [3] [min] | CL/F [4] [mL/min/kg] | bioavailability [5] [%] | IC50 (RS4-11) [nM] | IC50 (HL-60) [nM] | IC50 (MV4-11 [6]) [nM] | IC50 (MOLM-13 [7]) [nM] | IC50 (BaF3 [8]) [nM] | IC50 (BaF3 [9]) [nM] | IC50 (BaF3 [10]) [nM] | SMILES | TGI (MV4-11 [11]) | TGI (MOLM-13 [12]) | Ratio IC50 (MOLM-13 [13])
9 | 26.4 | 222 | 153 | 11.2 | > 1000 | > 1000 | 0.032 | 0.038 | 0.97 | 3.61 | 9.17 | CC(C)(C)c1cc(NC(=O)Nc2ccc(-c3cn(CC#N)c4ncnc(N)c34)cc2)no1 | – | – | –
6 | 16.8 | 373 | 14.8 | 22.5 | > 1000 | > 1000 | 0.043 | < 0.001 | 0.16 | 2.35 | 4.83 | CC(C)(C)c1cc(NC(=O)Nc2ccc(-c3c[nH]c4ncnc(N)c34)cc2)no1 | inactive | inactive | >100
4 | 52.8 | 152 | 56.3 | 25.6 | > 1000 | > 1000 | 0.131 | 0.007 | 0.25 | 10.7 | 18 | CC(C)(C)c1cc(NC(=O)Nc2ccc(-c3c[nH]c4ncnc(N)c34)cc2F)no1 | – | – | –
20 | 30 | 253 | 255 | 12.1 | > 1000 | > 1000 | 0.1 | 0.971 | 5.3 | 12.6 | 12.2 | CC(C)n1cc(-c2ccc(NC(=O)Nc3cc(C(C)(C)C)on3)cc2)c2c(N)ncnc21 | – | – | –
51 | – | – | – | – | > 1000 | > 1000 | 3.22 | 1.45 | 5.41 | 50.2 | 84.4 | C=CCCn1cc(-c2ccc(NC(=O)Nc3cc(C(C)(C)C)on3)c(F)c2)c2c(N)ncnc21 | – | – | –

Further lines, the molecule ahead of its results:

SMILES | IC50 [1] [nM] | Tmax [2] [min] | half-life [3] [min] | CL/F [4] [mL/min/kg] | bioavailability [5] [%] | IC50 (RS4-11) [nM] | IC50 (HL-60) [nM] | IC50 (MV4-11 [6]) [nM] | IC50 (MOLM-13 [7]) [nM] | IC50 (BaF3 [8]) [nM] | IC50 (BaF3 [9]) [nM] | IC50 (BaF3 [10]) [nM] | TGI (MV4-11 [11]) | TGI (MOLM-13 [12]) | Ratio IC50 (MOLM-13 [13])
C#CCn1cc(-c2ccc(NC(=O)Nc3cc(C(C)(C)C)on3)cc2)c2c(N)ncnc21 | 13 | 49.8 | 167 | 28.3 | 40 | > 1000 | > 1000 | 0.602 | 0.262 | 1.66 | 13.9 | 21.1 | – | – | –
CC(C)(C)c1cc(NC(=O)Nc2ccc(-c3cn(CCCN4CCOCC4)c4ncnc(N)c34)cc2)no1 | 9 | – | – | – | – | > 1000 | > 1000 | 0.069 | 0.193 | 0.99 | 32.1 | 61.8 | inactive | inactive | –
CC(C)(C)c1cc(NC(=O)Nc2ccc(-c3cn(CCCCO)c4ncnc(N)c34)cc2)no1 | 16 | 18.6 | 166 | 801 | 9.8 | > 1000 | > 1000 | 0.876 | 0.14 | 1.73 | 13.6 | 14.7 | – | – | –
CC(C)(C)c1cc(NC(=O)Nc2ccc(-c3cn(CCN4CCOCC4)c4ncnc(N)c34)cc2)no1 | 20 | – | – | – | – | > 1000 | > 1000 | 0.329 | 1.15 | 1.07 | 34.8 | 52.4 | inactive | inactive | –
C=CCCCn1cc(-c2ccc(NC(=O)Nc3cc(C(C)(C)C)on3)cc2)c2c(N)ncnc21 | 69 | – | – | – | – | > 1000 | > 1000 | 2.94 | 2.22 | 5.95 | 200 | 140 | – | – | –
